Laboratory results reported in publication PMC9134315, “Systemic Administration of a Brain Permeable Cdk5 Inhibitor Alters Neurobehavior” (Frontiers in Pharmacology, 2022).

What was measured:
Cdk5 [1] = target: T1, Cdk5 (Mus musculus, UniProt P49615); assay: Ex vivo acute striatal brain slice pharmacology, immunoblot of phospho-Thr75 DARPP-32 and phospho-Ser1116 NR2B; format: cell-based; details: acute striatal slices, 1 h treatment, 0-10 µM; read-out: IC50, Cdk5-dependent phosphorylation of DARPP-32 and NR2B
T1 construct: from tissue; host or cells: striatum of wild-type C57BL/6 mice (acute slices, or lysates after I.V. dosing)
T1 sequence (P49615 whole entry): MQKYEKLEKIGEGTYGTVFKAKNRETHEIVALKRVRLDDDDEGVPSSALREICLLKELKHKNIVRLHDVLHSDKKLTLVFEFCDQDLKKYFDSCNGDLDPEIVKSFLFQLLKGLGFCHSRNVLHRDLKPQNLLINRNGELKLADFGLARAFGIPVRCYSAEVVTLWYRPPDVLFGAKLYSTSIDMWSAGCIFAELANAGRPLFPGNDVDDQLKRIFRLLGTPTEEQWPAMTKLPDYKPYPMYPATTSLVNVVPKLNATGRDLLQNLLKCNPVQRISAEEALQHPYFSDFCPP
T1 sequence (P61809 2-307 partner limits assumed): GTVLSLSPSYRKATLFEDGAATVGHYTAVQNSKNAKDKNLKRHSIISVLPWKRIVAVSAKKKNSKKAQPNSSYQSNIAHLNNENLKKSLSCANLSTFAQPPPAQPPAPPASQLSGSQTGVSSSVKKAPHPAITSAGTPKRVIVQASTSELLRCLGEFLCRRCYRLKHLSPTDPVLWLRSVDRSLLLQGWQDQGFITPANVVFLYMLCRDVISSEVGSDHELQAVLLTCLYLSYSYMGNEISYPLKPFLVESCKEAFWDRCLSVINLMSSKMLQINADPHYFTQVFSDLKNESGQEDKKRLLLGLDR
Description: Brain slice pharmacology was performed as described ([Nishi et al., 2000]). Briefly, the mice were decapitated, and the brains were rapidly dissected and submerged in ice-cold normal Kreb’s solution (124 mM NaCl, 4 mM KCl, 26 mM NaHCO3, 1.25 mM KH2PO4, 1.5 mM MgSO4, 10 mM D-glucose, and 1.5 mM CaCl2). The brains were subsequently sectioned into normal Kreb’s solution at 350 µ thickness. The brain slices were transferred to a 30°C solution of normal Kreb’s containing 10 µM deaminase for a 1-h recovery period. The sections were then incubated in normal Kreb’s solution with and without the indicated compounds across the dose and time ranges indicated. The sections were rapidly snap-frozen in dry ice to terminate treatment regimes.
(§1) Immunoblotting was performed as previously described ([Umfress et al., 2021]). Mouse brains were rapidly dissected in an ice-cold solution of 50 mM NaF/PBS. The regions of interest were further dissected out and rapidly snap-frozen in dry ice. The frozen tissue was homogenized in boiling lysis buffer (1% SDS, 50 mM NaF) and sonicated with several three to four pulses at 40 dB. The samples were subsequently denatured at 90°C for 5 min. Protein concentration was determined by the BCA assay, and homogenates were diluted in 4x sample buffer, separated by SDS-PAGE, and transferred to 0.45-µm nitrocellulose membranes, blocked with 5% milk solution (1 h), and probed with primary antibodies (overnight). The following antibodies were used in the study: phospho-Ser549 synapsin I (Phosphosolutions), total synapsin I (Phosphosolutions), actin (Invitrogen), phospho-Ser1116 (in-house) ([Plattner et al., 2014]), and total NR2B (Phosphosolutions), phospho-Thr75, and total DARPP-32 (Cell Signaling Technology). Visualization was performed using the Licor CLX membrane scanner and Licor secondary antibodies.
In order to assess the functional inhibition of Cdk5 in intact brain tissue by the four compounds summarized in Figure 1, acutely prepared striatal slices were treated in a dose-dependent manner (0, 0.25, 0.5, 1, 5, and 10 µM) with each inhibitor for 1 h, and Cdk5 activity was assessed via immunoblotting the phosphorylation of established Cdk5 sites, phospho-Thr75 DARPP-32 and phospho-Ser1116 NR2B ([Bibb et al., 1999]; [Plattner et al., 2014]).

Cdk5 [2] = target: T1, Cdk5; assay: In vivo Cdk5 inhibition after I.V. injection, immunoblot of striatal phospho-Ser549 synapsin I; details: 50 mg/kg I.V., striatal lysates, various time points, data not shown
Description: The wild-type group housed male C57BL/6 mice 10–12 weeks of age were used for all in vivo, ex vivo, and behavioral studies. This age range was selected to be consistent with previous studies of conditional Cdk5 knockout mice ([Plattner et al., 2015]). 25–106 was administered in a 20-fold dose range intravenously (I.V.) at 10, 50, 100, and 200 mg/kg for pharmacokinetic studies. This delivery mode was used as I.V. injections to avoid first-pass drug metabolism observed using other injection methods ([Pond and Tozer, 1984]). […] All animal experiments were performed under approved protocols by the University of Alabama at Birmingham (UAB) Institutional Animal Care and Use Committees and in accordance with the guidelines of the Animal Welfare Act and the Guide for the Care and Use of Laboratory Animals.
as §1
Each of the four compounds tested in brain slices was further screened for their ability to penetrate the blood–brain barrier (BBB) and inhibit Cdk5-dependent activity in vivo. For these studies, cohorts of mice were treated with each compound via I.V. injection (50 mg/kg), and brain striatal lysates from various time points were subjected to quantitative immunoblot analysis for phosho-Ser549 Synapsin I levels. Three compounds, 20–107, 20–132, and 20–143, had no effect on Cdk5 activity compared to that of vehicle alone (data not shown). […] Moreover, this effect persisted even 24 h after dosing.

[3] = ref Vita et al., 2005; cited from earlier work

IC50 (Cdk5 [1]) [µM]	effect on Cdk5 activity (phospho-Ser549 synapsin I) compared to vehicle (Cdk5 [2])	Compound	distribution into the brain [3]	half-life and active metabolites [3]
0.5 to 1	no effect	O=C(Cc1ccc2c(c1)OCCO2)Nc1cc(C2CCC2)[nH]n1 [25–107]	–	–
–	–	CC[C@H](CO)Nc1nc(NCc2ccccc2)c2ncn(C(C)C)c2n1 [roscovitine]	could distribute into the brain	rapid half-life with no detectable active metabolites
0.5 to 1	no effect	O=C(C/C=C/c1ccccc1)Nc1cc(C2CCC2)[nH]n1 [25–132]	–	–
0.5 to 1	no effect	COc1ccc(CC(=O)Nc2cc(C3CCC3)[nH]n2)cc1OC [25–143]	–	–
